Experimental data as given in ChEMBL document CHEMBL5365466, “Discovery of Triazolyl Derivatives of Cucurbitacin B Targeting IGF2BP1 against Non-Small Cell Lung Cancer” (J Med Chem, 2023).
Calls of active or inactive are those of the source. No cut-off for these calls is given here.

Key:
HCT-116 [1] = experiment: Antiproliferative activity against human HCT-116 cells assessed as cell growth inhibition incubated for 72 hrs by SRB assay; assay type: functional, cell-based; conditions: HCT-116, 72 h
HeLa = experiment: Antiproliferative activity against human HeLa cells assessed as cell growth inhibition incubated for 72 hrs by SRB assay; assay type: functional, cell-based
A549 [2] = experiment: Antiproliferative activity against human A549 cells assessed as cell growth inhibition incubated for 72 hrs by SRB assay; assay type: functional, cell-based; conditions: A549, 72 h
CFPAC-1 = experiment: Antiproliferative activity against human CFPAC-1 cells assessed as cell growth inhibition incubated for 72 hrs by SRB assay; assay type: functional, cell-based; conditions: CFPAC-1, 72 h
A549 [3] = experiment: Induction of apoptosis in human A549 cells incubated for 48 hrs by Annexin V-FITC/PI staining based flow cytometric analysis; assay type: functional, cell-based
A549 [4] = experiment: Induction of apoptosis in human A549 cells assessed as downregulation of c-Myc expression incubated for 48 hrs by Western blotting analysis; assay type: functional, cell-based
[5] = Selectivity index, ratio of IC50 for antiproliferative activity against human L02 cells to IC50 for antiproliferative activity against human HeLa cells; assay type: toxicity, cell-based; conditions: L02 cells versus HeLa cells, read-out: Ratio IC50
A549 [6] = experiment: Antitumor activity against human A549 cells xenografted in BALB/c mouse assessed as reduction in Ki67 expression in tumor at 0.5 mg/kg,ip administrated for 21 days by immunohistochemical analysis; assay type: functional, organism-based; conditions: time 21.0 day
A549 [7] = experiment: Antitumor activity against human A549 cells xenografted in BALB/c mouse assessed as tumor growth inhibition at 0.5 mg/kg,ip administrated for 21 days; assay type: functional; conditions: A549, 504 h, time 21 day, read-out: TGI
HCT-116 [8] = experiment: Antiproliferative activity against human HCT-116 cells assessed as cell growth inhibition at 1 uM incubated for 72 hrs by SRB assay; assay type: functional
A549 [9] = experiment: Induction of cell cycle arrest in human A549 cells assessed as accumulation of cells at G2 phase at 0.5 uM incubated for 24 hrs by PI staining based flow cytometric analysis (reference value: 9.26 %); assay type: functional
A549 [10] = experiment: Induction of cell cycle arrest in human A549 cells assessed as accumulation of cells at G2 phase at 0.2 uM incubated for 24 hrs by PI staining based flow cytometric analysis (reference value: 9.26 %); assay type: functional
A549 [11] = experiment: Antitumor activity against human A549 cells xenografted in BALB/c mouse assessed as decrease in tumor volume at 0.5 mg/kg,ip administrated for 21 days; assay type: functional, organism-based; conditions: time 21.0 day
A549 [12] = experiment: Induction of apoptosis in human A549 cells at 0.5 uM incubated for 48 hrs by Annexin V-FITC/PI staining based flow cytometric analysis; assay type: functional
[13] = target: T1, Insulin-like growth factor 2 mRNA-binding protein 1 (Homo sapiens, UniProt Q9NZI8); experiment: Binding affinity to human recombinant IGF2BP1 assessed as dissociation constant by microscale thermophoresis analysis
A549 [14] = experiment: Induction of cell cycle arrest in human A549 cells assessed as accumulation of cells at S phase at 0.2 uM incubated for 24 hrs by PI staining based flow cytometric analysis (reference value: 23 %); assay type: functional
A549 [15] = experiment: Induction of apoptosis in human A549 cells assessed as downregulation of BCL-2 expression incubated for 48 hrs by Western blotting analysis; assay type: functional, cell-based
A549 [16] = experiment: Antiproliferative activity against human A549 cells with IGF2BP1 knockdown assessed as cell growth inhibition incubated for 72 hrs by SRB assay; assay type: functional, cell-based; conditions: A549, 72 h
[17] = target: T1, Insulin-like growth factor 2 mRNA-binding protein 1; experiment: Binding affinity to IGF2BP1 in human A549 cells assessed as protein stabilization at 1 uM at 52 degreeC incubated for 2 hrs by CETSA; assay type: cell-based
[18] = target: T1, Insulin-like growth factor 2 mRNA-binding protein 1; experiment: Binding affinity to His-tagged recombinant IGF2BP1 (unknown origin) assessed as dissociation constant by surface plasmon resonance assay
[19] = Selectivity index, ratio of IC50 for antiproliferative activity against human L02 cells to IC50 for antiproliferative activity against human HepG2 cells; assay type: toxicity, cell-based; conditions: L02 cells versus HepG2 cells, read-out: Ratio IC50
[20] = Selectivity index, ratio of IC50 for antiproliferative activity against human L02 cells to IC50 for antiproliferative activity against human HCT-116 cells; assay type: toxicity, cell-based; conditions: L02 cells versus HCT-116 cells, read-out: Ratio IC50
A549 [21] = experiment: Induction of apoptosis in human A549 cells assessed as increase in PARP cleavage incubated for 48 hrs by Western blotting analysis; assay type: functional, cell-based
A549 [22] = experiment: Induction of apoptosis in human A549 cells assessed as downregulation of BCL-xl expression incubated for 48 hrs by Western blotting analysis; assay type: functional, cell-based
[23] = target: T1, Insulin-like growth factor 2 mRNA-binding protein 1; experiment: Binding affinity to IGF2BP1 in human A549 cells assessed as protein stabilization at 1 uM at 49 degreeC incubated for 2 hrs by CETSA; assay type: cell-based
A549 [24] = experiment: Induction of autophagy in human A549 cells assessed as upregulation of LC3II/LC3I ratio at 0.1 to 0.5 uM incubated for 48 hrs by Western blotting analysis; assay type: functional, cell-based; conditions: dose 0.1-0.5 µM

T1 sequence (Q9NZI8 whole entry): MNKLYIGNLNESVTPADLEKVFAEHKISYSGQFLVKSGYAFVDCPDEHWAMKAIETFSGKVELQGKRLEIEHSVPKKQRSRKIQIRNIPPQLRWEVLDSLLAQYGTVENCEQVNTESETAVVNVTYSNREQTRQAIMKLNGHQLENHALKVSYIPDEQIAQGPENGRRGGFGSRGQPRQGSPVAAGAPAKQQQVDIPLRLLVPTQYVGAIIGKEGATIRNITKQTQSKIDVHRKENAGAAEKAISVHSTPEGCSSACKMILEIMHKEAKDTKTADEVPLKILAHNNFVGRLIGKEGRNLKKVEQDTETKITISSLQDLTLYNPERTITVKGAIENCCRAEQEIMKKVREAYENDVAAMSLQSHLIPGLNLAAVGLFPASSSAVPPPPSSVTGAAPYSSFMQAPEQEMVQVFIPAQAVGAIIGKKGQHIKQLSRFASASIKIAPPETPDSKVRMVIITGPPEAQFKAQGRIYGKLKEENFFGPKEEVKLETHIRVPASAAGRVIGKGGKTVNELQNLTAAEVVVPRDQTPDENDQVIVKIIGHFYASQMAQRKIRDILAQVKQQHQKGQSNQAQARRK

CC(=O)OC(C)(C)/C=C/C(=O)[C@](C)(O)[C@H]1[C@H](O)C[C@@]2(C)[C@@H]3CC=C4[C@@H](C[C@H](OC(=O)Cn5ncn(-c6ccc(F)cc6)c5=O)C(=O)C4(C)C)[C@]3(C)C(=O)C[C@]12C
IC50 (HCT-116 [1]): 34 nM
IC50 (HeLa): 15 nM
IC50 (A549 [2]): 9 nM
IC50 (CFPAC-1): 37 nM
Activity (A549 [3]): Dose-Dependent Effect
Activity (A549 [4]): Dose-Dependent Effect
selectivity ratio [5]: 6.67
Activity (A549 [6]): Active
inhibition in vivo at 0.5 mg/kg (A549 [7]): 80%
inhibition at 1 µM (HCT-116 [8]): 84.1%
Activity (A549 [9]): 37.3%
Activity (A549 [10]): 16.4%
Activity (A549 [11]): Active
Activity (A549 [12]): 36.7%
Kd [13]: 10.9 nM
Activity (A549 [14]): 16.6%
Activity (A549 [15]): Dose-Dependent Effect
IC50 (A549 [16]): 92 nM
Activity [17]: Active
Kd [18]: 2.88 nM
selectivity ratio [19]: 1.25
selectivity ratio [20]: 2.94
Activity (A549 [21]): Dose-Dependent Effect
Activity (A549 [22]): Dose-Dependent Effect
Activity [23]: Active
Activity (A549 [24]): Active
